In ChEMBL document CHEMBL3044957, “Synthesis and biological evaluation of some N 4-aryl-substituted 5-fluoroisatin-3-thiosemicarbazones” (Med Chem Res, 2013):
pIC50: −log10 of the molar value. Calls of active or inactive are those of the source. The calls are words filed in the database; no cut-off is given here.

Legend:
Urease = Urease (Canavalia ensiformis, UniProt P07374); assay: Inhibition of Canavalia ensiformis (jack bean) urease assessed as inhibition of ammonia production after 15 min by indophenol method; details: for pIC50: read-out: IC50
[1] = molecular target: Urease (Canavalia ensiformis) (UniProt P07374); assay: Inhibition of Canavalia ensiformis (jack bean) urease assessed as inhibition of ammonia production at 500 uM after 15 min by indophenol method
Lemna aequinoctialis [2] = assay: Phytotoxicity against Lemna aequinoctialis assessed as growth inhibition at 5 ug/ml after 7 days relative to control; assay type: functional; details: 168 h, read-out: GI
Lemna aequinoctialis [3] = assay: Phytotoxicity against Lemna aequinoctialis assessed as growth inhibition at 50 ug/ml after 7 days relative to control; assay type: functional; details: 168 h, read-out: GI
Nakaseomyces glabratus = assay: Growth inhibition of Candida glabrata at 200 ug/ml after 7 days; assay type: functional; details: 168 h
Lemna aequinoctialis [4] = assay: Phytotoxicity against Lemna aequinoctialis assessed as growth inhibition at 500 ug/ml after 7 days relative to control; assay type: functional; details: 168 h, read-out: GI
Fusarium solani = assay: Growth inhibition of Fusarium solani at 200 ug/ml after 7 days; assay type: functional; details: 168 h
Microsporum canis = assay: Growth inhibition of Arthroderma otae at 200 ug/ml after 7 days; assay type: functional; details: 168 h
Candida albicans = assay: Growth inhibition of Candida albicans at 200 ug/ml after 7 days; assay type: functional; details: 168 h
Aspergillus flavus = assay: Growth inhibition of Aspergillus flavus at 200 ug/ml after 7 days; assay type: functional; details: 168 h
Trichophyton longifusum = assay: Growth inhibition of Trichophyton longifusum at 200 ug/ml after 7 days; assay type: functional; details: 168 h
[5] = Toxicity against Artemia salina (brine shrimp) assessed as mortality after 24 hr; assay type: organism-based; details: in vivo, read-out: LD50
[6] = molecular target: Urease (Canavalia ensiformis) (UniProt P07374); assay: Inhibition of Canavalia ensiformis (jack bean) urease assessed as inhibition of ammonia production at 100 uM after 15 min by indophenol method
[7] = molecular target: Urease (Canavalia ensiformis) (UniProt P07374); assay: Inhibition of Canavalia ensiformis (jack bean) urease assessed as inhibition of ammonia production at 200 uM after 15 min by indophenol method
Homo sapiens = species: Homo sapiens; assay: Inhibition of […] urease-mediated ammonia production at 100 uM after 15 min by indophenol method
Lemna aequinoctialis [8] = assay: Phytotoxicity against Lemna aequinoctialis assessed as growth inhibition at 0.015 g/ml after 7 days relative to control; assay type: functional

Urease (Canavalia ensiformis), sequence (P07374 whole entry, looked up): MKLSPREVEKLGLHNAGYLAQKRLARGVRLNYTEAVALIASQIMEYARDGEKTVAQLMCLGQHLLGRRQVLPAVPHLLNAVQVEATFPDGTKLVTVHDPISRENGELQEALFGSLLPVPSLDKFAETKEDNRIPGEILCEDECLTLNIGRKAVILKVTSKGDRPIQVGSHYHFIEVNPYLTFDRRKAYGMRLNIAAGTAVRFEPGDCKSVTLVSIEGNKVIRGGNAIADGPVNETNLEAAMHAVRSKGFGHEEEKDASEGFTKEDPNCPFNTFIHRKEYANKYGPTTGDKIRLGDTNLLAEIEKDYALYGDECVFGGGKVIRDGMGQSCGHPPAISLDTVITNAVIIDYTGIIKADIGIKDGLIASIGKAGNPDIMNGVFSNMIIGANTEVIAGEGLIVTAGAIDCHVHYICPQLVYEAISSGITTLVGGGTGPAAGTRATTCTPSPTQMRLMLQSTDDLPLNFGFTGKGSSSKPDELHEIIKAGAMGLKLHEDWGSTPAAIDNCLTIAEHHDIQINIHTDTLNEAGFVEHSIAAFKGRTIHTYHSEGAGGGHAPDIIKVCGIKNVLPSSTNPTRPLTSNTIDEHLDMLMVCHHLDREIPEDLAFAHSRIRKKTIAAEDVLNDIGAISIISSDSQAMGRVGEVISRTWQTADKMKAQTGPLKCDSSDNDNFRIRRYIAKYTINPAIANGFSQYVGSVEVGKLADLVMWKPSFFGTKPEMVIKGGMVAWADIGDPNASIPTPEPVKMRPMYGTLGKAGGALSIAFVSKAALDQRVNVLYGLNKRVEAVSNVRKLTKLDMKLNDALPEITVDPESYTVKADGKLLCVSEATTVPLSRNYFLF
Urease, sequence (P07374 whole entry): as the sequence (P07374 whole entry, looked up) above

SMILES	pIC50 (Urease)	inhibition [1] [%]	inhibition of growth at 5 µg/mL (Lemna aequinoctialis [2]) [%]	inhibition of growth at 50 µg/mL (Lemna aequinoctialis [3]) [%]	inhibition at 200 µg/mL (Nakaseomyces glabratus) [%]	inhibition of growth at 500 µg/mL (Lemna aequinoctialis [4]) [%]	inhibition at 200 µg/mL (Fusarium solani) [%]	inhibition at 200 µg/mL (Microsporum canis) [%]	inhibition at 200 µg/mL (Candida albicans) [%]	inhibition at 200 µg/mL (Aspergillus flavus) [%]	inhibition at 200 µg/mL (Trichophyton longifusum) [%]	LC50 at 24 h [5] [µM]	inhibition [6] [%]	inhibition [7] [%]	inhibition (Homo sapiens)	IC50 (Urease)	growth inhibition (GI) (Lemna aequinoctialis [8]) [%]
O=C1Nc2ccc(F)cc2/C1=N/NC(=S)Nc1ccccc1F	4.42	94.6	20	25	0	35	20	30	0	0	0	279					
O=C1Nc2ccc(F)cc2/C1=N/NC(=S)Nc1cc(F)cc(F)c1	3.82	80.2	0	10	0	15	0	40	0	0	0	107					
O=C1Nc2ccccc2/C1=N/NC(=S)Nc1ccccc1C(F)(F)F	4.48												63.1				
O=C1Nc2ccccc2/C1=N/NC(=S)Nc1cccc(F)c1	4.30												57.3				
O=C1Nc2ccccc2/C1=N/NC(=S)Nc1ccc(OC(F)(F)F)cc1	4.69												49.6				
O=C1Nc2ccc(F)cc2/C1=N/NC(=S)Nc1ccccc1C(F)(F)F	4.30		5	10	0	25	0	20	0	15	0	> 52.4		77.3			
O=C1Nc2ccc(F)cc2/C1=N/NC(=S)Nc1c(F)cccc1F	4.33	72.5	0	10	0	30	0	40	0	40	0	115					
O=C1Nc2ccccc2/C1=N/NC(=S)Nc1ccc(C(F)(F)F)cc1	4.30												44.6				
O=C1Nc2ccccc2/C1=N/NC(=S)Nc1ccccc1			15	25		40						> 338			inactive		
O=C1Nc2ccc(F)cc2/C1=N/NC(=S)Nc1ccc(OC(F)(F)F)cc1		18.9	10	20	0	35	0	30	0	10	0	> 50.3				Not Active	
O=C1Nc2ccccc2/C1=N/NC(=S)Nc1cccc(C(F)(F)F)c1	4.69												78.2				
O=C1Nc2ccc(F)cc2/C1=N/NC(=S)Nc1ccc(F)cc1F		22.1	10	20	0	30	15	35	0	40	0	> 57.1				Not Active	
C[n+]1ccc(-c2cc[n+](C)cc2)cc1																	100
O=C1Nc2ccccc2/C1=N/NC(=S)Nc1ccccc1F	4.69												84.9				
O=C1Nc2ccccc2/C1=N/NC(=S)Nc1cc(F)cc(F)c1													38.8				
O=C1Nc2ccccc2/C1=N/NC(=S)Nc1ccc(F)cc1F	4.32												71.9				
NC(N)=S		99															
O=C1Nc2ccc(F)cc2/C1=N/NC(=S)Nc1ccc(C(F)(F)F)cc1	4.04		10	15	0	25	5	25	0	20	0	176		53.4			
O=C1Nc2ccc(F)cc2/C1=N/NC(=S)Nc1ccccc1	3.46	53	10	15	0	70	0	20	0	0	0	68.9					
O=C1Nc2ccccc2/C1=N/NC(=S)Nc1c(F)cccc1F	4.48												92				
O=C1Nc2ccc(F)cc2/C1=N/NC(=S)Nc1cccc(F)c1	4.34		15	25	0	30	15	25	0	10	0	121		79.8			
O=C1Nc2ccc(F)cc2/C1=N/NC(=S)Nc1cccc(C(F)(F)F)c1	4.22	92.6	0	10	0	30	25	30	0	30	0	> 52.4					
O=C1Nc2ccc(F)cc2/C1=N/NC(=S)Nc1ccc(Br)cc1F			10	25	0	30	10	20	0	0	0	> 49.1		21.9		Not Active	
O=C1Nc2ccc(F)cc2/C1=N/NC(=S)Nc1ccc(F)cc1		45.6	10	25	0	35	10	15	0	0	0	97.9				Not Active	
